For one data set, the system named is HCT116 cells. The data set can be described thus: cells. The note with it: Homo sapiens, HCT-116, 96 h; HCT116 cells, 4 day incubation, SYTOX green imaging, average of at least four independent repeats; read-out: GI50. Format: cell-based, human. As to the method: (§1) page 47: 1.5. Biological experimental 1.5.1. […] The experiment was performed in duplicates. 1.5.2. […] 1.5.3. […] 46

The subject of the next data set is U2OS cells. The data set can be described thus: cells. Format: cell-based, human. The note with it: Homo sapiens, 96 h; U2OS cells, 4 day incubation, SYTOX green imaging, average of at least four independent repeats; read-out: GI50. The procedure: as §1
For data set [1], the target named is T1, CK2α (Homo sapiens, UniProt P68400).
T1 construct: CK2α_WT was used (residues 2-329); His6 (N, cleaved yes); made in house; host or cells: Escherichia coli BL21(DE3)
T1 sequence (P68400 2-329): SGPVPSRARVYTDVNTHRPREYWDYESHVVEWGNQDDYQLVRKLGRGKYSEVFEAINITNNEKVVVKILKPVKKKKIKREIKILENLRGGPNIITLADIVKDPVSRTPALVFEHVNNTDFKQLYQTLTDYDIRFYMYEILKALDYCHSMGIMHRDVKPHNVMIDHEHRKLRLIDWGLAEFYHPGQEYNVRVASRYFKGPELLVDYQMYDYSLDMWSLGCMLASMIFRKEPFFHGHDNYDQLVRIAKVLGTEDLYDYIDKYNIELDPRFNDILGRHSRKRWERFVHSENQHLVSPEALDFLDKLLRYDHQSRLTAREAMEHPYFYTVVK
Put plainly: Fluorescence polarisation assay: displacement of fluorescein-labelled CK2β-derived probe from CK2α. Format: binding. The note with it: FP, 15 µM test compound, 450 nM CK2α, 7.4 nM CK2β_pep probe, 350 mM NaCl, 20 mM Mes pH 6.5, 30 min incubation, triplicates; approximate; read-out: % inhibition at 15 μM (CK2β-like probe displacement). The source says: Molecular modelling identified Cys2 and Gly11 of Pc,[34] corresponding to P185 and P194 of CK2β, as suitable residues to staple: they make negligible contributions to the binding and are positioned at a suitable distance from each other to accommodate a 2C-CuAAC staple (ESI, Fig. S1 ^†). To cyclise the peptide, azido amino acids bearing one-carbon-atom side chains (Fmoc-Aza-OH) were used in combination with aliphatic linkers of different lengths as proposed by molecular modelling (Fig. 2 and ESI Table S1 ^†). The ability of the synthesised macrocycles to disrupt the α/β PPI of CK2 was then tested in a preliminary fluorescent polarisation assay (FP) (Fig. 2). […]
(§2) lysed using a high-pressure homogeniser.
(§3) The soluble supernatant was applied on a […]
(§4) mM NaCl, 1mM DTT, 1mM EDTA, pH 8.5). 100µL of the precision protease was loaded onto the […]
Pure protein was concentrated to 15 mg/mL and flash frozen in liquid N2.
1.4.2. Fluorescent Polarisation anisotropy
Approximate % inhibition of
The experiment was performed in triplicates.
(§5) 1.4.3. Isothermal Calorimetry Titration
(§6) 1.4.3.1. Direct binding assay
(§7) DMSO) and concentrated to 20-50 μM. Compounds in 100× stock solutions were diluted into the […]
(§8) Control titrations were performed, and the […]

The conditions of data set [2]: pH 6.5.
Data set [3] addresses T2, CK2α (Homo sapiens, UniProt P68400, K74A/K75A/K76A/R21S).
T2 construct: CK2α_KA (residues 2 -329) contained four; His6 (N, cleaved yes); made in house; host or cells: Escherichia coli BL21(DE3)
T2 sequence (P68400 2-329 R21S/K74A/K75A/K76A): T1 sequence (P68400 2-329) with R20S, K73A, K74A, K75A
The data set can be described thus: Isothermal titration calorimetry, direct binding to CK2α. As to conditions: ITC, 25°C, CK2α_KA, Tris 200 mM, NaCl 300 mM, 10% DMSO, single site binding model. As to the method:
as §2, §3, §4
Pure protein was concentrated to 15 mg/mL and flash frozen in liquid N2. […]
as §5, §6, §7, §8
Background: In ITC the heat of successive injections is recorded.

For a further data set, the target named is T3, CK2α/CK2β interaction (Homo sapiens, UniProt P68400).
T3 construct: CK2α_WT was used (residues 2-329); His6 (N, cleaved yes); made in house; host or cells: Escherichia coli BL21(DE3)
T3 sequence (P68400 2-329): T1 sequence (P68400 2-329)
The data set can be described thus: ITC competition assay: CK2β binding to CK2α alone and in the presence of peptide. The note with it: 25°C. The procedure:
We then wanted to investigate whether the peptides would be able to inhibit the binding of the β subunit to the α subunit. To this end, the binding affinity of the regulatory β subunit for the catalytic domain was determined via ITC (Kd 9 nM). This was then repeated in the presence of 100 μM P1-C4 and P2-C4 (ESI, Table S4 ^†). […] As one of the key roles of CK2β is to recruit substrates to the kinase, the effect of PPI inhibition on substrate phosphorylation was studied using CK2β dependent and independent substrates. […] It should be noted that the kinase assay was performed using the pre-formed CK2α/β complex as the ability of CK2α to phosphorylate eIF2β requires the presence of the CK2β subunit.
1.4.3.2. Competition assay […]
concentrated to 4-6 μM. CK2β (9.3 mg/mL, 20 mM Tris pH 8.5, 500 mM NaCl) was diluted in Tris buffer (200 mM, NaCl, 300 mM, 10% DMSO) and concentrated to 40 μM. In a typical experiment, […]
performed at 150 second intervals. The syringe was loaded with CK2β and rotated at 750 rpm. The same experiment was repeated in the presence of the peptide s: compounds at 1 mM in DMSO were added to the solutions of CK2α and CK2β (prepared as described above) to a final concentration of […]
binding model using Origin software. […]
(CK2β-RAD) 200s, baseline 120s (assay buffer), control loading 200s (RAD), baseline 150s (assay buffer), ligand binding (association) 400s (CK2α K74A and CAM7117) and ligand dissociation 600s (assay buffer), followed by regeneration and next cycles. […]
GraphPad. The results are the average of 4 repeats and error shown as SEM.
Figure S10- Sensorgrams of the BLI competition experiments to assess the ability of P2-C4 to […] the CK2α/CK2β-RAD complex. a) Concentration of peptide ranging from 10 to 0.025 μM and 0 μM. b) Concentration of peptide ranging from 10 to 5 nM and 0 nM.
(1 picture or pasted object on this page, not shown here)

The record followed here is publication PMC6530537, “Efficient development of stable and highly functionalised peptides targeting the CK2α/CK2β protein–protein interaction” (Chemical Science, 2019).

Where a chain is given by its changes, count along the chain named. Where a SMILES comes first, the peptide text is derived from it. Bridges are numbered along the chain shown (N, C = ends). [ ]: non-standard residue; d: D form. Dap(N3) = [N-]=[N+]=NC[C@H](N)C(=O)O

One may read the GI50 as the concentration at which growth is held to half of that of the control. The term inhibition denotes the percentage by which the read-out fell short of the control. One may read the Kd as the concentration at which binding is half-saturated.

Regarding `O=C(O)c1ccc2c(c1)nc(Nc1cccc(Cl)c1)c1ccncc12` [CX4945, reference compound], the values for the GI50 with HCT116 cells and with U2OS cells were 14 ± 2 µM and 7 ± 1 µM, respectively. Turning to `CC[C@H](C)[C@@H]1NC(=O)[C@H](CCCCN)NC(=O)[C@H](Cc2ccccc2)NC(=O)CNC(=O)[C@H](Cc2ccc(O)cc2)NC(=O)[C@H](CC(C)C)NC(=O)[C@H](CCCNC(=N)N)NC(=O)[C@@H](NC(C)=O)Cn2cc(nn2)CCc2cn(nn2)C[C@@H](C(N)=O)NC(=O)[C@H](Cc2c[nH]cn2)NC1=O` [P0-C1], the inhibition at 15 µM at CK2α [1] worked out at 0.6 ± 0.5%.

As for `CC[C@H](C)[C@@H]1NC(=O)[C@H](CCCCN)NC(=O)[C@H](Cc2ccccc2)NC(=O)CNC(=O)[C@H](Cc2ccc(O)cc2)NC(=O)[C@H](CC(C)C)NC(=O)[C@H](CCCNC(=N)N)NC(=O)[C@@H](NC(=O)CNC(C)=O)Cn2cc(nn2)Cc2cn(nn2)C[C@@H](C(=O)NCC(=O)NCC(N)=O)NC(=O)[C@H](Cc2c[nH]cn2)NC1=O` [P1-C3], in data set [2], the “Solubility under the assay conditions” value was “insoluble”. Turning to `CC[C@H](C)[C@@H]1NC(=O)[C@H](CCCCN)NC(=O)[C@H](Cc2ccccc2)NC(=O)CNC(=O)[C@H](Cc2ccc(O)cc2)NC(=O)[C@H](CC(C)C)NC(=O)[C@H](CCCNC(=N)N)NC(=O)[C@@H](NC(=O)CNC(C)=O)Cn2cc(nn2)-c2cc(C(=O)O)cc(c2)-c2cn(nn2)C[C@@H](C(=O)NCC(=O)NCC(N)=O)NC(=O)[C@H](Cc2c[nH]cn2)NC1=O` [P1-C4], the inhibition at 15 µM at CK2α [1] was 93 ± 1%. At CK2α [3], this compound registered a Kd of 0.46 µM. For the same compound, on CK2α/CK2β interaction (100 μM peptide, preliminary assay), the “Binding of CK2β to CK2α in the presence of peptide” value is “no binding of CK2β to CK2α was detected”. For `CC(=O)NCC(=O)N[C@@H](CN=[N+]=[N-])C(=O)N[C@@H](CCCNC(=N)N)C(=O)N[C@@H](CC(C)C)C(=O)N[C@@H](Cc1ccc(O)cc1)C(=O)NCC(=O)N[C@@H](Cc1ccccc1)C(=O)N[C@@H](CCCCN)C(=O)N[C@@H](Cc1c[nH]c2ccccc12)C(=O)N[C@@H](Cc1c[nH]cn1)C(=O)N[C@@H](CN=[N+]=[N-])C(=O)NCC(=O)NCC(N)=O` [P2] (Ac-G[Dap(N3)]RLYGFKWH[Dap(N3)]GG-NH2), the Kd on CK2α [3] is 44 µM. Still for that read-out and setting: the figure for `CC[C@H](C)[C@@H]1NC(=O)[C@H](CCCCN)NC(=O)[C@H](Cc2ccccc2)NC(=O)CNC(=O)[C@H](Cc2ccc(O)cc2)NC(=O)[C@H](CC(C)C)NC(=O)[C@H](CCCNC(=N)N)NC(=O)[C@@H](NC(=O)CNC(C)=O)CSSC[C@@H](C(=O)NCC(N)=O)NC(=O)CNC(=O)[C@H](Cc2c[nH]cn2)NC1=O` [Pc, reference compound] (Ac-GCRLYGFKIHGCG-NH2; disulfide 2-12) is 1 µM. As to “CK2β: regulatory β subunit of CK2, recombinant construct (1-198)”, in the data set with CK2α/CK2β interaction (CK2β in the syringe, CK2α in the cell, no peptide, read-out: Kd of the regulatory β subunit for the catalytic domain CK2α), the Kd was determined as 0.009 µM.

As for “GXC2RLYGFKIHXC2GG (sidechain bridge or staple) [P1-C2]”, the “Solubility under the assay conditions” value in data set [2] is reported as “insoluble”.
